Measured values from patent US8518876B2, “Composition for long-acting peptide analogs” (Pharmaln Corporation, priority 2007, dated 2013).
Where a SMILES comes first, the peptide text is derived from it. Bridges are numbered along the chain shown (N, C = ends). [ ]: non-standard residue; d: D form. The star is where a group is joined. ξ: configuration not given here. Lauroyl = CCCCCCCCCCCC(=O)*; Octanoyl = CCCCCCCC(=O)*; ξLac = CC(O)C(=O)O

Legend:
[1] = test system: human umbilical chord artery endothelial cells (HUAEC); assay: Ca-influx after vasopressin analog stimulation of HUAEC, samples pre-incubated in human serum; assay type: cell-based; design: key to Activity of Various Vasopressin Analogs, 0 h / Activity of Various Vasopressin Analogs, 1 h / Activity of Various Vasopressin Analogs, 2 h / Activity of Various Vasopressin Analogs, 4 h: “−” for no detectable activity; “+” to “+++” for slight to high activity; “+” to “+++” for slight to high activity; “+” to “+++” for slight to high activity; details: for Activity of Various Vasopressin Analogs, 0 h: 0 h pre-incubation in pooled human serum at 37° C. (serum present); for Activity of Various Vasopressin Analogs, 0 h / Activity of Various Vasopressin Analogs, 1 h / Activity of Various Vasopressin Analogs, 2 h / Activity of Various Vasopressin Analogs, 4 h: Ca-influx in HUAEC, 50 nM per well; for Activity of Various Vasopressin Analogs, 1 h: 1 h pre-incubation in pooled human serum at 37° C.; for Activity of Various Vasopressin Analogs, 2 h: 2 h pre-incubation in pooled human serum at 37° C.; for Activity of Various Vasopressin Analogs, 4 h: 4 h pre-incubation in pooled human serum at 37° C.; for course of activity on incubation in human serum: in words
Text: Ca-influx after vasopressin analog stimulation of human umbilical chord artery endothelial cells (HUAEC) was used to test the biological activity of the various vasopressin analogs. The material used were: 75 cm^2 tissue culture flasks, BD Bioscience, Bedford Mass. (catalogue number 137787) with 0.2 μm vented blue plug seal caps (catalogue number 353136); human umbilical artery endothelial cells (HUAEC), Lonza, Walkersville, Md. (catalogue number CC-2520); EGM-2 fully supplement medium, Lonza, Walkersville, Md. (catalogue number CC-3162); Fura-2 AM, Invitrogen/Molecular Probes, Carlsbad, Calif. (catalogue number F-1221) (Fura-2 AM is a high affinity, intracellular calcium indicator that is ratiometric and UV light-excitable; the acetoxymethyl (AM) ester form is useful for noninvasive intracellular loading as it is cell permeable. Once inside the cell the ester is clipped which renders the Fura-2 molecule cell impermeable and therefore trapped inside.); terlipressin derivatives custom made by Anaspec, San Jose Calif., according to inventors specifications; pooled human serum, Sigma, St. Louis, Mo. (catalogue number H4522); phosphate buffered saline (PBS), Fisher Scientific, Fair Lawn, N.J. (catalogue number BP399-500); trypsin-EDTA solution, 0.25%, Invitrogen/Gibco, Carlsbad, Calif. (catalogue number 25200-072); heat inactivated fetal bovine serum (FBS), Invitrogen/Gibco, Carlsbad, Calif. (catalogue number 10438-026); black polystyrene 96 well flat-bottom assay plates, Corning Inc., Corning, N.Y. (catalogue number 3916); Chameleon plate multilabel detection reader, Hidex, Turku, Finland, distributed by Bioscan, Washington, D.C.; dimethyl sulfoxide (DMSO), Fisher Scientific, Fair Lawn, N.J. (catalogue number D-136-1).
The methods used for tissue or cell culture are as follows: a vial of HUAEC (>0.5×10^6 cells) was thawed and seeded in two 75 cm^2 flasks with 15 ml EGM-2 medium each. Cells were grown over night and medium was changed. Media in the flasks were changed on a Monday, Wednesday, Friday schedule. Cells were split at approximately 80% confluency (using trypsin). Media were removed and the flasks were washed with 10 ml 1×PBS. The PBS was removed, 1.5 ml trypsin-EDTA solution was added and incubated for 5 min at 37° C. Three ml of FBS added and the cells were counted. The cells were centrifuged at 200×G for 5 min, resuspended in EGM-2 medium and distributed into new 75 cm2 flasks @ 3000-5000 cells per cm2.
To prepare for the Ca2+-influx assay, cells were distributed into one black 96 well plate @ 10^5 cells/well. Cells were allowed to adhere overnight and the medium was then removed. Fifty μg Fura-2 was dissolved in 50 μl DMSO and added to 10 ml PBS/2% FBS. The cells were stained with 20 μl of 5 μg/ml Fura-2 in PBS/2% FBS for 2 h, then 180 μl EGM-2 medium supplemented with CaCl2 and glucose was added (10 mM CaCl2 and 11.1 mM glucose final concentrations).
To prepare analogs for testing, 50 uM terlipressin (or derivative) stock solution in DMSO was prepared. […] (placed on ice after incubation).
To measure Ca-influx, Fura-2 fluorescence was measured for 4 repetitions per well at 340 nm ex/510 nm em and 420 nm ex/510 nm em (4 measurement before and 16 after injection of drug. At t=12 sec, 20 μl of terlipressin or derivative was injected as a 500 nM solution (or serum) for a final concentration of 50 nM per well. Fura-2 fluorescence was measured for […] per well at 340 nm ex/510 nm em and 420 nm ex/510 nm em (4 measurements before and 16 after injection of drug). The controls included injected human serum alone, and terlipressin or derivative dissolved in PBS as […]. All measurements were done in hexuplicate.
Data analysis was done using Graphpad Prism version 5.0 software (Graphpad software Inc, San Diego, Calif.). […]

[2] = Solubility in water of the synthesized peptide; assay type: physicochemical; details: in words
rat ear model = assay: Rat ear model, maintenance of vasoconstriction (paleness of ears) after subcutaneous injection; assay type: in vivo; details: for loss of paleness after: subcutaneous injection, ears examined after 6 and 24 h
Protocol: Using a rat ear model, a vasopressin analog with metal binding moiety of the present invention, His6Ter (“His6” disclosed as SEQ ID NO: 52), was evaluated for it ability to maintain vasoconstriction for an extended period of time. The analog was formulated at a 2% load in polymeric carrier containing 40PLPEG537-Zn-chelate. The peptide analog-polymeric complex was injected subcutaneously into the back of one set of rats, while terlipressin alone was also injected similarly in another set of rats. The ears were examined at baseline and at intervals up to 48 h.
Using the same model, the effects of delayed release of biologically-active lysine vasopressin from the peptide analog His6Ter (“His6” disclosed as SEQ ID NO: 52), with or without complexing in polymeric carrier, was tested. In the experiment, terlipressin was conjugated with a his tag metal binding moiety to result in the His6Ter peptide analog (“His6” disclosed as SEQ ID NO: 52). A portion of the His6Ter analog (“His6” disclosed as SEQ ID NO: 52) was formulated at 2% loading in 40PLPEG537-Zn-chelate. The three test materials were injected subcutaneously into groups of rats and the ears were examined after 6 and 24 h.

[3] = cited from earlier work

| Structure (SMILES) | solubility in water [2] | Activity of Various Vasopressin Analogs, 0 h [1] | Activity of Various Vasopressin Analogs, 1 h [1] | Activity of Various Vasopressin Analogs, 2 h [1] | Activity of Various Vasopressin Analogs, 4 h [1] | other results |
| --- | --- | --- | --- | --- | --- | --- |
| CCCCCCCC(=O)NCC(=O)NCC(=O)NCC(=O)N[C@H]1CSSC[C@@H](C(=O)N2CCC[C@H]2C(=O)N[C@@H](CCCCN)C(=O)NCC(N)=O)NC(=O)[C@H](CC(N)=O)NC(=O)[C@H](CCC(N)=O)NC(=O)[C@H](Cc2ccccc2)NC(=O)[C@H](Cc2ccc(O)cc2)NC1=O [C8TerA, CH3(CH2)6CO-Gly-Gly-Gly-Cys-Tyr-Phe-Gln-Asn-Cys-Pro-Lys-Gly-NH2] (Octanoyl-GGGCYFQNCPKG-NH2; disulfide 4-9) | water soluble | +++ | +++ | +++ | +++ |  |
| CCCCCCCCCCCC(=O)OC(C)C(=O)NCC(=O)NCC(=O)NCC(=O)N[C@H]1CSSC[C@@H](C(=O)N2CCC[C@H]2C(=O)N[C@@H](CCCCN)C(=O)NCC(N)=O)NC(=O)[C@H](CC(N)=O)NC(=O)[C@H](CCC(N)=O)NC(=O)[C@H](Cc2ccccc2)NC(=O)[C@H](Cc2ccc(O)cc2)NC1=O (stereo partly drawn) [C12TerE, CH3(CH2)10CO—OHC(CH3)CO-Gly-Gly-Gly-Cys-Tyr-Phe-Gln-Asn-Cys-Pro-Lys-Gly-NH2] (Lauroyl-[ξLac]GGGCYFQNCPKG-NH2; disulfide 5-10) | limited solubility in water | +++ | + | − | − |  |
| NCCCC[C@H](NC(=O)[C@@H]1CCCN1C(=O)[C@@H]1CSSC[C@H](NC(=O)CNC(=O)CNC(=O)CN)C(=O)N[C@@H](Cc2ccc(O)cc2)C(=O)N[C@@H](Cc2ccccc2)C(=O)N[C@@H](CCC(N)=O)C(=O)N[C@@H](CC(N)=O)C(=O)N1)C(=O)NCC(N)=O [Terlipressin, reference compound] (H-GGGCYFQNCPKG-NH2; disulfide 4-9) |  | +++ | + | − | − | course of activity on incubation in human serum [1]: loses its activity quickly; course of activity on incubation in human serum ([1]; listed as terlipressin): losses activity immediately afterwards; ear colour at 6 h (rat ear model; subcutaneous injection into the back, 6 h): pale; ear colour at 24 h (rat ear model; subcutaneous injection into the back, 24 h): returned to a baseline color; loss of paleness after (rat ear model): 6 h |
| NC(=O)CC[C@@H]1NC(=O)[C@H](Cc2ccccc2)NC(=O)[C@H](Cc2ccc(O)cc2)NC(=O)[C@@H](N)CSSC[C@@H](C(=O)N2CCC[C@H]2C(=O)N[C@@H](CCCN=C(N)N)C(=O)NCC(N)=O)NC(=O)[C@H](CC(N)=O)NC1=O [vasopressin] |  |  |  |  |  | half-life [3]: 24 min |

Further lines, with some results ahead:

| solubility in water [2] | Structure (SMILES) | Activity of Various Vasopressin Analogs, 0 h [1] | Activity of Various Vasopressin Analogs, 1 h [1] | Activity of Various Vasopressin Analogs, 2 h [1] | Activity of Various Vasopressin Analogs, 4 h [1] | other results |
| --- | --- | --- | --- | --- | --- | --- |
| water soluble | CCCCCCCC(=O)OC(C)C(=O)NCC(=O)NCC(=O)NCC(=O)N[C@H]1CSSC[C@@H](C(=O)N2CCC[C@H]2C(=O)N[C@@H](CCCCN)C(=O)NCC(N)=O)NC(=O)[C@H](CC(N)=O)NC(=O)[C@H](CCC(N)=O)NC(=O)[C@H](Cc2ccccc2)NC(=O)[C@H](Cc2ccc(O)cc2)NC1=O (stereo partly drawn) [C8TerE, CH3(CH2)6CO—OHC(CH3)CO-Gly-Gly-Gly-Cys-Tyr-Phe-Gln-Asn-Cys-Pro-Lys-Gly-NH2] (Octanoyl-[ξLac]GGGCYFQNCPKG-NH2; disulfide 5-10) |  |  |  |  |  |
| water soluble | NCCCC[C@H](NC(=O)[C@@H]1CCCN1C(=O)[C@@H]1CSSC[C@H](NC(=O)CNC(=O)CNC(=O)CNC(=O)[C@H](Cc2c[nH]cn2)NC(=O)[C@H](Cc2c[nH]cn2)NC(=O)[C@@H](N)Cc2c[nH]cn2)C(=O)N[C@@H](Cc2ccc(O)cc2)C(=O)N[C@@H](Cc2ccccc2)C(=O)N[C@@H](CCC(N)=O)C(=O)N[C@@H](CC(N)=O)C(=O)N1)C(=O)NCC(N)=O [His3Ter, His-His-His-Gly-Gly-Gly-Cys-Tyr-Phe-Gln-Asn-Cys-Pro-Lys-Gly-NH2] (H-HHHGGGCYFQNCPKG-NH2; disulfide 7-12) |  |  |  |  |  |
| water soluble | N=C(N)NCCC[C@H](NC(=O)[C@@H]1CCCN1C(=O)[C@@H]1CSSC[C@H](NC(=O)CNC(=O)CNC(=O)CNC(=O)[C@H](Cc2c[nH]cn2)NC(=O)[C@H](Cc2c[nH]cn2)NC(=O)[C@@H](N)Cc2c[nH]cn2)C(=O)N[C@@H](Cc2ccc(O)cc2)C(=O)N[C@@H](Cc2ccccc2)C(=O)N[C@@H](CCC(N)=O)C(=O)N[C@@H](CC(N)=O)C(=O)N1)C(=O)NCC(N)=O [His3Vas, His-His-His-Gly-Gly-Gly-Cys-Tyr-Phe-Gln-Asn-Cys-Pro-Arg-Gly-NH2] (H-HHHGGGCYFQNCPRG-NH2; disulfide 7-12) |  |  |  |  |  |
| water soluble | NCCCC[C@H](NC(=O)[C@@H]1CCCN1C(=O)[C@@H]1CSSC[C@H](NC(=O)CNC(=O)CNC(=O)CNC(=O)[C@H](Cc2c[nH]cn2)NC(=O)[C@H](Cc2c[nH]cn2)NC(=O)[C@H](Cc2c[nH]cn2)NC(=O)[C@H](Cc2c[nH]cn2)NC(=O)[C@H](Cc2c[nH]cn2)NC(=O)[C@@H](N)Cc2c[nH]cn2)C(=O)N[C@@H](Cc2ccc(O)cc2)C(=O)N[C@@H](Cc2ccccc2)C(=O)N[C@@H](CCC(N)=O)C(=O)N[C@@H](CC(N)=O)C(=O)N1)C(=O)NCC(N)=O [His6Ter, His-His-His-His-His-His-Gly-Gly-Gly-Cys-Tyr-Phe-Gln-Asn-Cys-Pro-Lys-Gly-NH2] (H-HHHHHHGGGCYFQNCPKG-NH2; disulfide 10-15) |  |  |  |  | loss of paleness after (rat ear model): 6 h |
| water soluble | N=C(N)NCCC[C@H](NC(=O)[C@@H]1CCCN1C(=O)[C@@H]1CSSC[C@H](NC(=O)CNC(=O)CNC(=O)CNC(=O)[C@H](Cc2c[nH]cn2)NC(=O)[C@H](Cc2c[nH]cn2)NC(=O)[C@H](Cc2c[nH]cn2)NC(=O)[C@H](Cc2c[nH]cn2)NC(=O)[C@H](Cc2c[nH]cn2)NC(=O)[C@@H](N)Cc2c[nH]cn2)C(=O)N[C@@H](Cc2ccc(O)cc2)C(=O)N[C@@H](Cc2ccccc2)C(=O)N[C@@H](CCC(N)=O)C(=O)N[C@@H](CC(N)=O)C(=O)N1)C(=O)NCC(N)=O [His6Vas, His-His-His-His-His-His-Gly-Gly-Gly-Cys-Tyr-Phe-Gln-Asn-Cys-Pro-Arg-Gly-NH2] (H-HHHHHHGGGCYFQNCPRG-NH2; disulfide 10-15) |  |  |  |  |  |
